Usually mortality stands for the percentage killed.

Series [1] concerns Yellow Fever Mosquito (YFM). Type of series: in vivo, Aedes aegypti. The settings on record: 15 μL of diluted 4000 ppm master solution per well, about 1 day-old larvae, 3 days. How it is done: Master plates containing 400 μg of a molecule dissolved in 100 μL of dimethyl sulfoxide (DMSO) (equivalent to a 4000 ppm solution) are used. A master plate of assembled molecules contains 15 μL per well. To this plate, 135 μL of a 90:10 water:acetone mixture is added to each well. A robot (Biomek® NXP Laboratory Automation Workstation) is programmed to dispense 15 μL aspirations from the master plate into an empty 96-well shallow plate (“daughter” plate). There are 6 reps (“daughter” plates) created per master. The created daughter plates are then immediately infested with YFM larvae. The day before plates are to be treated, mosquito eggs are placed in Millipore water containing liver powder to begin hatching (4 g. into 400 mL). After the daughter plates are created using the robot, they are infested with 220 μL of the liver powder/larval mosquito mixture (about 1 day-old larvae). After plates are infested with mosquito larvae, a non-evaporative lid is used to cover the plate to reduce drying. Plates are held at room temperature for 3 days prior to grading. After 3 days, each well is observed and scored based on mortality. The results are indicated in the table entitled “Table ABC: Assay Results (F)” and “Table ABCD: Assay Results (C)” (See Table Section). Pesticidally Acceptable Acid Addition Salts, Salt Derivatives, Solvates, Ester Derivatives, Polymorphs, Isotopes and Radionuclides

Another series deals with Beet Armyworm (BAW). The series can be described thus: Bioassays on BAW, 128-well diet tray assay. Conditions: Spodoptera exigua, 168 h, read-out: BAW % Control (or Mortality) rating. Type of series: in vivo. How it is done: Bioassays on BAW were conducted using a 128-well diet tray assay. one to five second instar BAW larvae were placed in each well (3 mL) of the diet tray that had been previously filled with 1 mL of artificial diet to which 50 μg/cm^2 of the test compound (dissolved in 50 μL of 90:10 acetone-water mixture) had been applied (to each of eight wells) and then allowed to dry. Trays were covered with a clear self-adhesive cover, and held at 25° C., 14:10 light-dark for five to seven days. Percent mortality was recorded for the larvae in each well; activity in the eight wells was then averaged. The results are indicated in the tables entitled “Table ABC: Assay Results (F)”, “Table ABCD: Assay Results (C)”, and “Table ABCDE: Assay Results (P)” (See Table Section).
(§1) Bioassays on BAW and CL were conducted according to the procedures outlined in Example A: Bioassays on Beet Armyworm (“BAW”) and Cabbage Looper (“CL”) using the following concentrations: 5, 0.5, and 0.05 μg/cm^2.

The subject of the next series is Cabbage Looper (CL). The series can be described thus: Bioassays on CL, 128-well diet tray assay. Type of series: in vivo. The settings on record: Trichoplusia ni, 168 h, read-out: CL % Control (or Mortality) rating. The protocol: Bioassays on CL were conducted using a 128-well diet tray assay. One to five second instar CL larvae were placed in each well (3 mL) of the diet tray that had been previously filled with 1 mL of artificial diet to which 50 μg/cm^2 of the test compound (dissolved in 50 μL of 90:10 acetone-water mixture) had been applied (to each of eight wells) and then allowed to dry. Trays were covered with a clear self-adhesive cover, and held at 25° C., 14:10 light-dark for five to seven days. Percent mortality was recorded for the larvae in each well; activity in the eight wells was then averaged. The results are indicated in the table entitled “Table ABC: Assay Results (F)”, “Table ABCD: Assay Results (C)”, and “Table ABCDE: Assay Results (P)” (See Table Section).
as §1

[2] abbreviates: 50 μg/cm^2 on artificial diet, second instar larvae, five to seven days, 25° C.

Read-outs that look alike come from different tables or passages of the source.

For `CC(NC(=O)c1ccc(/C=C/C(c2cc(Cl)c(Cl)c(Cl)c2)C(F)(F)F)cc1C(F)(F)F)NC(=O)C(C)(C)C` (stereo in doubt) [Compound F19, N—((S)-1-Pivalamidoethyl)-4-((E)-4,4,4-trifluoro-3-(3,4,5-trichlorophenyl)but-1-en-1-yl)-2-(trifluoromethyl)benzamide], the “YFM % Control (or Mortality) rating” value in series [1] is “A (80-100)”. The mortality at 50 µg/cm2 in the series with Beet Armyworm (BAW) (setting [2]) and in the series with Cabbage Looper (CL) (setting [2]) was 50 to 100% each time.

As for `CN(NC(=O)c1ccc(/C=C/C(c2cc(Cl)c(Cl)c(Cl)c2)C(F)(F)F)cc1C(F)(F)F)C(=O)OC(C)(C)C` (stereo not drawn) [Compound C116, (E)-tert-butyl 1-methyl-2-(4-(4,4,4-trifluoro-3-(3,4,5-trichlorophenyl)but-1-en-1-yl)-2-(trifluoromethyl)benzoyl)hydrazinecarboxylate], the “YFM % Control (or Mortality) rating” value in series [1] is listed as “A (80-100)”. In addition, the mortality at 50 µg/cm2 in the series on Beet Armyworm (BAW) and with Cabbage Looper (CL) was 50 to 100% each time.

Take `CCCCCC(=O)N[C@@H](C)NC(=O)c1ccc(/C=C/C(c2cc(Cl)c(Cl)c(Cl)c2)C(F)(F)F)cc1C(F)(F)F` (stereo partly drawn) [Compound F3, N—((R)-1-hexanamidoethyl)-4-((E)-4,4,4-trifluoro-3-(3,4,5-trichlorophenyl)but-1-en-1-yl)-2-(trifluoromethyl)benzamide]: the “YFM % Control (or Mortality) rating” value in series [1] was “A (80-100)”. In addition, the mortality at 50 µg/cm2 in the series with Beet Armyworm (BAW) (setting [2]) and in the series on Cabbage Looper (CL) (setting [2]) was 50 to 100% each time.

With `CC(C)CCC(=O)N[C@@H](C)NC(=O)c1ccc(/C=C/C(c2cc(Cl)c(Cl)c(Cl)c2)C(F)(F)F)cc1C(F)(F)F` (stereo partly drawn) [Compound F4, N—((R)-1-(4-Methylpentanamido)ethyl)-4-((E)-4,4,4-trifluoro-3-(3,4,5-trichlorophenyl)but-1-en-1-yl)-2-(trifluoromethyl)benzamide], in series [1], the “YFM % Control (or Mortality) rating” value is given as “A (80-100)”. Further, the mortality at 50 µg/cm2 with Beet Armyworm (BAW) (setting [2]) and in the series on Cabbage Looper (CL) (setting [2]) was 50 to 100% throughout.

For the molecule `CCCCC(=O)N[C@@H](C)NC(=O)c1ccc(/C=C/C(c2cc(Cl)c(Cl)c(Cl)c2)C(F)(F)F)cc1C(F)(F)F` (stereo partly drawn) [Compound F5, N—((R)-1-Pentanamidoethyl)-4-((E)-4,4,4-trifluoro-3-(3,4,5-trichlorophenyl)but-1-en-1-yl)-2-(trifluoromethyl)benzamide], the “YFM % Control (or Mortality) rating” value in series [1] is “A (80-100)”. Also, the mortality at 50 µg/cm2 in the series on Beet Armyworm (BAW) (setting [2]) and in the series on Cabbage Looper (CL) (setting [2]) was 50 to 100% in each case.

As for `CC(C)CC(=O)N[C@@H](C)NC(=O)c1ccc(/C=C/C(c2cc(Cl)c(Cl)c(Cl)c2)C(F)(F)F)cc1C(F)(F)F` (stereo partly drawn) [Compound F6, N—((R)-1-(3-Methylbutanamido)ethyl)-4-((E)-4,4,4-trifluoro-3-(3,4,5-trichlorophenyl)but-1-en-1-yl)-2-(trifluoromethyl)benzamide], the “YFM % Control (or Mortality) rating” value in series [1] is listed as “A (80-100)”. Also, the mortality at 50 µg/cm2 with Beet Armyworm (BAW) (setting [2]) and in the series with Cabbage Looper (CL) (setting [2]) was 50 to 100% each time.

Regarding `C[C@@H](NC(=O)c1ccc(/C=C/C(c2cc(Cl)c(Cl)c(Cl)c2)C(F)(F)F)cc1C(F)(F)F)NC(=O)C1CC1` (stereo partly drawn) [Compound F7, N—((R)-1-(Cyclopropanecarboxamido)ethyl)-4-((E)-4,4,4-trifluoro-3-(3,4,5-trichlorophenyl)but-1-en-1-yl)-2-(trifluoromethyl)benzamide], the “YFM % Control (or Mortality) rating” value in series [1] is “A (80-100)”. The mortality at 50 µg/cm2 in the series on Beet Armyworm (BAW) (setting [2]) and in the series with Cabbage Looper (CL) (setting [2]) was 50 to 100% in each case.

Consider `CC(C)=CC(=O)N[C@@H](C)NC(=O)c1ccc(/C=C/C(c2cc(Cl)c(Cl)c(Cl)c2)C(F)(F)F)cc1C(F)(F)F` (stereo partly drawn) [Compound F8, N—((R)-1-(3-Methylbut-2-enamido)ethyl)-4-((E)-4,4,4-trifluoro-3-(3,4,5-trichlorophenyl)but-1-en-1-yl)-2-(trifluoromethyl)benzamide], for which, in series [1], the “YFM % Control (or Mortality) rating” value is given as “A (80-100)”. The mortality at 50 µg/cm2 in the series on Beet Armyworm (BAW) (setting [2]) and with Cabbage Looper (CL) (setting [2]) was 50 to 100% throughout.

Regarding `C[C@H](NC(=O)CCC#N)NC(=O)c1ccc(/C=C/C(c2cc(Cl)c(Cl)c(Cl)c2)C(F)(F)F)cc1C(F)(F)F` (stereo partly drawn) [Compound F9, N—((R)-1-(3-cyanopropanamido)ethyl)-4-((E)-4,4,4-trifluoro-3-(3,4,5-trichlorophenyl)but-1-en-1-yl)-2-(trifluoromethyl)benzamide], in series [1], the “YFM % Control (or Mortality) rating” value is listed as “A (80-100)”. Also, the mortality at 50 µg/cm2 with Beet Armyworm (BAW) (setting [2]) and in the series with Cabbage Looper (CL) (setting [2]) was 50 to 100% in each case.

On to `C[C@H](NC(=O)CCCC(F)(F)F)NC(=O)c1ccc(/C=C/C(c2cc(Cl)c(Cl)c(Cl)c2)C(F)(F)F)cc1C(F)(F)F` (stereo partly drawn) [Compound F10, 4-((E)-4,4,4-Trifluoro-3-(3,4,5-trichlorophenyl)but-1-en-1-yl)-2-(trifluoromethyl)-N—((R)-1-(5,5,5-trifluoropentanamido)ethyl)benzamide], for which the “YFM % Control (or Mortality) rating” value in series [1] is “A (80-100)”. Also, the mortality at 50 µg/cm2 with Beet Armyworm (BAW) (setting [2]) and in the series with Cabbage Looper (CL) (setting [2]) was 50 to 100% each time.

`C[C@H](NC(=O)CC#N)NC(=O)c1ccc(/C=C/C(c2cc(Cl)c(Cl)c(Cl)c2)C(F)(F)F)cc1C(F)(F)F` (stereo partly drawn) [Compound F11, N—((R)-1-(2-Cyanoacetamido)ethyl)-4-((E)-4,4,4-trifluoro-3-(3,4,5-trichlorophenyl)but-1-en-1-yl)-2-(trifluoromethyl)benzamide]: the “YFM % Control (or Mortality) rating” value in series [1] is recorded as “A (80-100)”. In addition, the mortality at 50 µg/cm2 in the series with Beet Armyworm (BAW) (setting [2]) and with Cabbage Looper (CL) (setting [2]) was 50 to 100% in each case.

As to `CC[C@H](NC(=O)CCC(F)(F)F)NC(=O)c1ccc(/C=C/C(c2cc(Cl)c(Cl)c(Cl)c2)C(F)(F)F)cc1C(F)(F)F` (stereo partly drawn) [Compound F12, 4-((E)-4,4,4-Trifluoro-3-(3,4,5-trichlorophenyl)but-1-en-1-yl)-N—((R)-1-(4,4,4-trifluorobutanamido)propyl)-2-(trifluoromethyl)benzamide], in series [1], the “YFM % Control (or Mortality) rating” value is given as “A (80-100)”. The mortality at 50 µg/cm2 with Beet Armyworm (BAW) (setting [2]) and in the series with Cabbage Looper (CL) (setting [2]) was 50 to 100% throughout.

Take `C[C@@H](NC(=O)c1ccc(/C=C/C(c2cc(Cl)c(Cl)c(Cl)c2)C(F)(F)F)cc1C(F)(F)F)NC(=O)C1(C#N)CC1` (stereo partly drawn) [Compound F14, N—((S)-1-(1-cyanocyclopropanecarboxamido)ethyl)-4-((E)-4,4,4-trifluoro-3-(3,4,5-trichlorophenyl)but-1-en-1-yl)-2-(trifluoromethyl)benzamide]: the “YFM % Control (or Mortality) rating” value in series [1] is listed as “A (80-100)”. For the same molecule, the mortality at 50 µg/cm2 with Beet Armyworm (BAW) (setting [2]) and in the series on Cabbage Looper (CL) (setting [2]) was 50 to 100% throughout.

Take `C[C@H](NC(=O)CC(C)(C)C)NC(=O)c1ccc(/C=C/C(c2cc(Cl)c(Cl)c(Cl)c2)C(F)(F)F)cc1C(F)(F)F` (stereo partly drawn) [Compound F15, N—((R)-1-(3,3-Dimethylbutanamido)ethyl)-4-((E)-4,4,4-trifluoro-3-(3,4,5-trichlorophenyl)but-1-en-1-yl)-2-(trifluoromethyl)benzamide]: the “YFM % Control (or Mortality) rating” value in series [1] is recorded as “A (80-100)”. Moreover, the mortality at 50 µg/cm2 in the series with Beet Armyworm (BAW) (setting [2]) and with Cabbage Looper (CL) (setting [2]) was 50 to 100% each time.

With `CC(CC(=O)N[C@@H](C)NC(=O)c1ccc(/C=C/C(c2cc(Cl)c(Cl)c(Cl)c2)C(F)(F)F)cc1C(F)(F)F)C(F)(F)F` (stereo partly drawn) [Compound F16, 4-((E)-4,4,4-Trifluoro-3-(3,4,5-trichlorophenyl)but-1-en-1-yl)-N-((1R)-1-(4,4,4-trifluoro-3-methylbutanamido)ethyl)-2-(trifluoromethyl)benzamide], the “YFM % Control (or Mortality) rating” value in series [1] is recorded as “A (80-100)”. The mortality at 50 µg/cm2 in the series with Beet Armyworm (BAW) (setting [2]) and with Cabbage Looper (CL) (setting [2]) was 50 to 100% each time.
